Key:
Type in all cases: cell-based
HSV-1 [1] = test: Plaque forming assay, Hep-2 cell monolayers infected with HSV-1; conditions: Hep-2 cells, 100 μM
Description: The ability of a virus to infect cells can be assessed using a plaque assay. In a plaque assay, an infected cell culture is grown under a nutrient gel. During culturing, the virus being study infects cells and replicates. However, the spread of virus to other cells is limited by the overlaying nutrient gel. As such, replicated virus released from one infected cell can only infect neighboring cells. The spread of virus amongst neighboring cells creates a plaque that can be visualized by staining. By counting the visible plaques, the amount of plaque forming units (pfu) per mL can be determined. If cells treated with a compound display a reduced amount of pfu compared to cells not treated with the compound after being infected with same amount of viral particles, then the reduction in pfu would have to be result of the ability of the […] virus. Thus, the ability of a compound in accordance with General Formula 1, including derivatives in accordance with any of General Formulae 1-1 to 1-20, to inhibit the ability of HSV-1 to proliferate can be assessed with a plaque assay.
Hep-2 cell monolayers were placed in well plates. The plated Hep-2 cells were treated with either DSMO as a control, 100 μM SD-29 or 100 μM SD29-12. A total of 6 well plates were prepared for each treatment condition. To each treated well plate an HSV-1 infecting solution comprising 1 mL of supernatants containing of the same amount of serially diluted HSV-1 particles were added. Accordingly, the treated well plates were infected with infection solutions containing the same amount of HSV-1 particles. After adsorption for 2 hours, the medium was removed and the treated cells were washed twice with serum-free DMEM and overlaid with phenol-free DMEM containing 5% FCS, 0.5% low-melting point agarose (GIBCO), and 1% penicillin-streptomycin. After either 0, 6, 12, 24 hours, the plaques present in each treated well plate were stained red and the number of plaques presented counted. Table 1 reports the mean plaque forming unit (pfu) determined for each treated well plate after averaging the number of pfu from the different plates receiving the same treatment.

CEM T cells = test: Percent of viable CEM T cells after infection; conditions: CEM T cells after infection with HIV1 modified pNL4-3.Luc.R-E-virus; FIG. 3
Description: It is possible that the diminished expression of a protein within the genome of a virus containing an IRES sequence may have been brought about by the compound inhibiting the ability infected cells to survive. If the compound or salt diminishes viability or is otherwise toxic to the cell, then diminished expression of a protein within the genome of a virus containing an IRES sequence may be the result of infected cells dying before sufficient levels of the protein can be expressed. Determining if diminished expression of a protein is the result of cell death or other toxic effects of the compound or salt may be accomplished by assessing the viability of cells after administration of the compound or salt. Accordingly, in some embodiments of assessing the ability of a compound in accordance with General Formula 1, including derivatives in accordance with any of General Formulae 1-1 to 1-20, or pharmaceutically acceptable salts thereof, to inhibit the expression of at least a portion of a virus genome containing an IRES sequence, the compound or salt may be assessed for its ability to preserve viability of cells following administration. […]

RACK-1 = biological target: T1, RACK-1 (Homo sapiens, UniProt P63244); test: Western assay of RACK-1 expression in HSV-1 infected Hep-2 cells; conditions: 100 μM, 24 hours pretreatment, twenty hours after infection, FIG. 6
T1 construct: endogenous in cells; host or cells: Hep-2 cells infected with HSV-1
Description: FIG. 6 is a Western assay showing expression of RACK-1, the IE protein ICP0, DE protein ICP8 and the L protein gD following infection of Hep-2 cells at varying multiplicity of infection (MOI) of HSV-1. In FIG. 6, ICP0 designates immediate early viral protein, ICP8 designates early viral protein, and dD designates late viral protein. Tubulin was used as a sample loading control. Prior to infection, Hep-2 cells were treated with DSMO as a control, 100 μM SD-29 or 100 μM SD29-12. After 24 hours of pretreatment, the Hep-2 cells were infected with HSV-1 at either 0.01, 0.05, 0.25 or 1.25 MOI (from 0.01 to 1.25). Twenty hours after infection, whole cell lysate samples were obtained and the Western assay shown in FIG. 6 was performed to examine protein levels.

HSV-1 [2] = test: Western assay of IE, DE and L HSV-1 proteins (ICP0, ICP8, gD) in infected Hep-2 cells; conditions: 100 μM, 24 hours pretreatment, HSV-1 0.01 to 1.25 MOI, twenty hours after infection, FIG. 6
Description: Compounds in accordance with General Formula 1, including derivatives in accordance with any of General Formulae 1-1 to 1-20, can be evaluated for the capacity to inhibit triggered expression of at least a portion of a virus genome containing an IRES sequence by administering the compound, or a pharmaceutically acceptable salt of the compound, to a cell culture and exposing the cell culture to a HSV-1 infection. After a sufficient amount of time, the culture can be examined to determine the expression of IE, DE and L genes. If the amount of at least one protein corresponding to an IE gene and at least one protein corresponding to a DE and/or L gene within the viral genome is diminished compared to that within an identical infected cell culture not treated with the compound or its salt, then the compound would be capable of inhibiting triggered expression of at least a portion of the viral genome. […]
Compounds in accordance with General Formula 1, including derivatives in accordance with any of General Formulae 1-1 to 1-20, or pharmaceutically acceptable salts thereof, can be assessed for the ability to inhibit triggered expression of at least a portion of the HSV-1 genome by infecting Hep-2 cells with the HSV-1 virus. […]

Nn1c(S)nnc1-c1ccc(F)cc1 [SD-29]
mean plaque forming unit (pfu) (HSV-1 [1]; 0 hpi): 0 pfu | mean plaque forming unit (pfu) (HSV-1 [1]; 6 hpi): 0 pfu | mean plaque forming unit (pfu) (HSV-1 [1]; 12 hpi): 100 pfu | mean plaque forming unit (pfu) (HSV-1 [1]; 24 hpi): 180000 pfu | number of pfu compared to DMSO control (in words) (HSV-1 [1]; Table 1 and FIG. 7): reduced number of pfu compared to control | viability of the infected cells (CEM T cells): did not decrease viability | expression of RACK-1 (RACK-1): reduced expression of RACK-1 | expression of IE, DE and L HSV-1 proteins (triggered expression) (HSV-1 [2]): significantly inhibited triggered expression
